Measurements published in ChEMBL document CHEMBL1201862, “PubChem BioAssay data set” (2004).
Where a name gives a salt, the structure may show the parent alone. Active and inactive are the calls of the source.

How the values were obtained:
[1] = MIN6 cell viability loss – mouse insulinoma, cytotoxicity control, dose response (AID 2122); format: functional;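 also: confirmatory high-throughput counterscreen run to flag cytotoxic compounds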
[2] = decrease of insulin promoter-GFP reporter – imaging, high-content screening, mouse beta cells (AID 1628); format: functional; conditions: MIN6
HEK293 [3] = experiment: NOD2 signaling inhibitors in MDP-stimulated cells, cell-based, uHTS, luminescence (AID 2001); format: functional; conditions: Homo sapiens
HEK293 [4] = experiment: inhibition of NOD1-driven NF-kB reporter – cell-based, luminescence, uHTS, primary screen (AID 1578); format: functional; conditions: Homo sapiens
HEK293 [5] = experiment: cells; format: functional, cell-based; conditions: Homo sapiens
HEK293 [6] = experiment: cells; format: functional, cell-based; conditions: Homo sapiens; remark: listed apart in the source
[7] = A Cell Based Secondary Assay To Explore Cytotoxicity of Compounds that Sensitize Mycobacterium Tuberculosis to Beta-Lactam Antibiotics.; format: functional
[8] = molecular target: DNA dC->dU-editing enzyme APOBEC-3G (Homo sapiens, UniProt Q9HC16); experiment: Dose Response confirmation of small molecule APOBEC3G DNA Deaminase Inhibitors via a fluorescence-based single-stranded DNA deaminase assay. [Related pubchem assays (depositor defined):AID493012, AID493028]; format: functional
[9] = molecular target: DNA dC->dU-editing enzyme APOBEC-3A (Homo sapiens, UniProt P31941); experiment: A3A deaminase inhibition for selectivity – biochemical, dose response (AID 504722); format: functional
[10] = molecular target: T1, Type-1 angiotensin II receptor (Homo sapiens, UniProt P30556); experiment: antagonism of angiotensin II type 1 receptor – cell-based, uHTS hits, selectivity assay for APJ receptor antagonist project, dose response (AID 463214); format: functional;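 also: antagonist potency against angiotensin II stimulated AT1 response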
T1 sequence (P30556 whole entry): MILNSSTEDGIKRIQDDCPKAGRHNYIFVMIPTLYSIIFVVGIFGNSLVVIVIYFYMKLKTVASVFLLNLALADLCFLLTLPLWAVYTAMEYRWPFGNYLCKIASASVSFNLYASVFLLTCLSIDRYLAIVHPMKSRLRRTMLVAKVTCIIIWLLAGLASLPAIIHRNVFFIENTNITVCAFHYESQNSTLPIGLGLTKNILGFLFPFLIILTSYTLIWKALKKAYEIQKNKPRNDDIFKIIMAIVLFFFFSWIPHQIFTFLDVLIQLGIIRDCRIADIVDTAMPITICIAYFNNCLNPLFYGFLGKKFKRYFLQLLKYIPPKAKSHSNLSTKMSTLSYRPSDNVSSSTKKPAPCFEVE

Beta-galactosidase [11] = molecular target: T2, Beta-galactosidase (Escherichia coli, UniProt Q8VNN2); experiment: PubChem AID 485352; format: functional
[12] = Luminescence Cell-Based Dose Retest to Confirm Inhibitors of Cancer Stem Cells. [Related pubchem assays (depositor defined):AID2717, AID2721]; format: functional; conditions: Homo sapiens
[13] = luciferase reporter signal suppression in cells – H4 neuroglioma cells, luminescence, dose response (AID 1990); format: functional, cell-based
[14] = alpha-synuclein stem-loop luciferase translation blockers – H4 neuroglioma cells, luminescence, confirmation (AID 1988); format: functional, cell-based
Beta-galactosidase [15] = molecular target: T2, Beta-galactosidase; experiment: detection-enzyme interference by beta-gal modulators – biochemical, E. coli enzyme, set 3, artefact control for CCR6 antagonist project, dose response (AID 504712); format: functional
[16] = Luminescence Cell-Based Dose Response HTS to Identify Inhibitors of 5'UTR Stem-Loop Driven Prion Protein mRNA Translation in H4 Neuroglioblastoma Cells. [Related pubchem assays: 1827 (Project Summary), 1813 (Primary HTS)]; format: functional
[17] = molecular target: Voltage-gated inwardly rectifying potassium channel KCNH2 (Homo sapiens, UniProt Q12809); conditions: Potency;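 also: confirmatory quantitative high-throughput screen measuring inhibition of hERG channel activity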
[18] = growth inhibition of yeast DHODH-expressing 3D7 parasites – SYBR Green, dry powder samples, dose response (AID 1159570); format: functional, cell-based;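 also: parasite growth measured after 72 hours of compound exposure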
[19] = toxicity to human HepG2 hepatoma cells – cell-based, plate reader, dry powder samples, cytotoxicity control, dose response (AID 1159569); format: functional;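 also: inhibitor potency with signal falling toward the positive control level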
[20] = Dd2 malaria parasite growth inhibition potency – SYBR Green, dry powder samples, dose response (AID 1159566); format: functional, cell-based;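 also: potency for growth inhibition with lower SYBR green DNA signal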
[21] = toxicity to human hepatoma HepG2 cells – cell-based, cherry-picked samples, cytotoxicity control, dose response (AID 1159577); format: functional
[22] = growth inhibition of PfATP4-mutant resistant parasites – NITD609-resistant line, SYBR Green, dry powder, dose response (AID 1159571); format: functional, cell-based;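 also: parasites synchronized at ring stage by sorbitol before testing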
[23] = P. falciparum Dd2 growth inhibitors, dose response, SYBR Green, cherry-picked samples (AID 1159567); format: functional, cell-based
[24] = molecular target: 5-hydroxytryptamine receptor 2A (Mus musculus, UniProt P35363); format: functional, cell-based;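 also: CHO-K1 cells with tagged receptor and beta-arrestin; agonist potency measured as compound-induced activation of the receptor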
cells [25] = format: functional, cell-based
[26] = molecular target: T3, Nuclear receptor subfamily 0 group B member 1 (Homo sapiens, UniProt P51843); format: functional, cell-based;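 also: HEK293T cells transfected with SF-1 and DAX-1 plus StAR promoter luciferase reporter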
T3 sequence (P51843 whole entry): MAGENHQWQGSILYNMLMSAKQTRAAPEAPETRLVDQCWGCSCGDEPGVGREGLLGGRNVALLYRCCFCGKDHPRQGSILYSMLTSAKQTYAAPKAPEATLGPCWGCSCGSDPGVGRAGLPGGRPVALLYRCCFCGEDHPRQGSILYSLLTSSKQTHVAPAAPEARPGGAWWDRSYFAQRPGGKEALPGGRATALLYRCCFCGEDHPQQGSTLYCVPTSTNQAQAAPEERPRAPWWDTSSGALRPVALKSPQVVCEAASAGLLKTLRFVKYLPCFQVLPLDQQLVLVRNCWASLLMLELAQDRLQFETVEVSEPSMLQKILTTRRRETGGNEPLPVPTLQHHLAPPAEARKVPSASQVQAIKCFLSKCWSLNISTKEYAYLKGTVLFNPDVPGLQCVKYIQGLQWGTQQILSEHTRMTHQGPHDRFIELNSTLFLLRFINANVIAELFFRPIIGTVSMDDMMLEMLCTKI

[27] = NIH3T3 cell viability loss – ATP luminescence, mouse fibroblasts, counter-screen, dose response (AID 2010); format: functional, cell-based;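 also: cells exposed to compound for about 90 hours before reading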
Streptokinase A = molecular target: T4, Streptokinase A (Streptococcus pyogenes serotype M1, UniProt P10520); experiment: viability-normalized secreted streptokinase activity reduction – plasminogen activation absorbance, OD405, dose response (AID 1914); format: functional, Streptococcus pyogenes M1 GAS;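 also: secreted streptokinase activity via plasminogen activation per viability signal from cell pellet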
T4 sequence (P10520 whole entry): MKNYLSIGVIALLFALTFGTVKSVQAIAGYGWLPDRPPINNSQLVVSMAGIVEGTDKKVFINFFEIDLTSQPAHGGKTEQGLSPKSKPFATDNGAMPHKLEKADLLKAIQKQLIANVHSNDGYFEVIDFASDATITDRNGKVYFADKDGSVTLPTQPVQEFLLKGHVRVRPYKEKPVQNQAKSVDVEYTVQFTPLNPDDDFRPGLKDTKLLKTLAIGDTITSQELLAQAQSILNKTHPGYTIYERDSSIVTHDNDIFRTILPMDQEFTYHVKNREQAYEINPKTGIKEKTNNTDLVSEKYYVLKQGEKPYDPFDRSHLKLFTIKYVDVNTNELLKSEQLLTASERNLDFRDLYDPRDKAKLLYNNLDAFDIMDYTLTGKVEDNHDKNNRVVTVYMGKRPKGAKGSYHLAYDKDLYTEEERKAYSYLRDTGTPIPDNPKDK

[28] = viability of uninfected HEp-2 cells – cell-based, HTS, cytotoxicity control for RSV inhibitor project, dose response (AID 2410); format: functional; conditions: human respiratory syncytial virus
Streptococcus = experiment: GAS UMAA2166 growth inhibition – luminescence, BacTiterGlo, counter-screen for streptokinase expression inhibitor project, dose response (AID 1915); format: functional, organism-based;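 also: potency for reduction of bacterial viability or growth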
[29] = system: Streptococcus sp. 'group A'; experiment: Streptococcus pyogenes SK(-)GAS viability under kanamycin – luminescence, BacTiterGlo, confirmation, counter-screen for streptokinase expression inhibitor project, dose response (AID 1900); format: functional, organism-based
[30] = Trypanosoma cruzi growth suppression in host cells – NIH3T3 host cells, beta-gal luminescence, confirmation (AID 2044); format: functional, cell-based;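 also: intracellular parasites grown in NIH/3T3 mouse fibroblasts as host cells; luminescent beta-galactosidase reporter signal from transgenic T. cruzi replicating inside host cells; inhibitors lower the luminescence signal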
cells [31] = experiment: cells
[32] = molecular target: T5, Oxysterols receptor LXR-beta (Homo sapiens, UniProt P55055); format: functional, cell-based;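 also: Cell-based luminescence dose-response assay of agonist activity at LXR, run as a confirmatory counterscreen to a daf-12 agonist screen; HEK293 cells with Gal4-LXR fusion and GAL4-driven luciferase reporter; agonist potency from rising luciferase signal of a Gal4-LXR reporter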
T5 sequence (P55055 whole entry): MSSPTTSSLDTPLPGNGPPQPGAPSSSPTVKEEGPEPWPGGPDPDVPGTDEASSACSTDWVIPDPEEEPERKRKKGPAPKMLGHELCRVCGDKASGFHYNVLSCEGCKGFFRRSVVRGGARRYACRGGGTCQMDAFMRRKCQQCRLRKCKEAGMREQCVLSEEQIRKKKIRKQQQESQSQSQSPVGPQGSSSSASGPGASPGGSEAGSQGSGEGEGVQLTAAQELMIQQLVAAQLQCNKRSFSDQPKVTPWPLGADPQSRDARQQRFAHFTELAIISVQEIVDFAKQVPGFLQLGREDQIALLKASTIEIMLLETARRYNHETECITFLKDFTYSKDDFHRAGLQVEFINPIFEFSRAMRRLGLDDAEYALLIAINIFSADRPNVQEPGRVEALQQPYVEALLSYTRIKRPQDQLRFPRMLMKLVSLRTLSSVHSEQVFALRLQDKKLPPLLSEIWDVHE

[33] = molecular target: T6, Heat shock factor protein 1 (Mus musculus, UniProt P38532); experiment: decrease of HSF1-responsive luciferase luminescence – cell-based, NIH3T3, dose retest, confirmation (AID 2382); format: functional;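 also: NIH3T3 fibroblasts with HSF1-driven luciferase reporter stressed by proteasome inhibitor MG132; luminescence from HSF1-driven luciferase expression after 8 hours of MG132 stress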
T6 sequence (P38532 whole entry): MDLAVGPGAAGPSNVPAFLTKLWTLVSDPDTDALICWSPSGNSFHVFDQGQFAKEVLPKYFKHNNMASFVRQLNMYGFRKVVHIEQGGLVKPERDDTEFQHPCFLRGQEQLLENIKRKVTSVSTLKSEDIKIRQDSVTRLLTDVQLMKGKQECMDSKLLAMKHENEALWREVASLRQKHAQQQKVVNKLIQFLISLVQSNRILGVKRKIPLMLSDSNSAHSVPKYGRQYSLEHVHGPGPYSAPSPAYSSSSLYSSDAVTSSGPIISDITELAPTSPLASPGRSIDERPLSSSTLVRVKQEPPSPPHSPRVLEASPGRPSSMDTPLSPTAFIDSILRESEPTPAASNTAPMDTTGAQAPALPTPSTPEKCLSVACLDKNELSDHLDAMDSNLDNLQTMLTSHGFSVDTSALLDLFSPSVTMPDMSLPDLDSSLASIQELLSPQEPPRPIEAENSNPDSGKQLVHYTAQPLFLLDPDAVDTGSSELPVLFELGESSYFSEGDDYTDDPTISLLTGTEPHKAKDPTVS

Sequence of Voltage-gated inwardly rectifying potassium channel KCNH2 (Q12809 whole entry): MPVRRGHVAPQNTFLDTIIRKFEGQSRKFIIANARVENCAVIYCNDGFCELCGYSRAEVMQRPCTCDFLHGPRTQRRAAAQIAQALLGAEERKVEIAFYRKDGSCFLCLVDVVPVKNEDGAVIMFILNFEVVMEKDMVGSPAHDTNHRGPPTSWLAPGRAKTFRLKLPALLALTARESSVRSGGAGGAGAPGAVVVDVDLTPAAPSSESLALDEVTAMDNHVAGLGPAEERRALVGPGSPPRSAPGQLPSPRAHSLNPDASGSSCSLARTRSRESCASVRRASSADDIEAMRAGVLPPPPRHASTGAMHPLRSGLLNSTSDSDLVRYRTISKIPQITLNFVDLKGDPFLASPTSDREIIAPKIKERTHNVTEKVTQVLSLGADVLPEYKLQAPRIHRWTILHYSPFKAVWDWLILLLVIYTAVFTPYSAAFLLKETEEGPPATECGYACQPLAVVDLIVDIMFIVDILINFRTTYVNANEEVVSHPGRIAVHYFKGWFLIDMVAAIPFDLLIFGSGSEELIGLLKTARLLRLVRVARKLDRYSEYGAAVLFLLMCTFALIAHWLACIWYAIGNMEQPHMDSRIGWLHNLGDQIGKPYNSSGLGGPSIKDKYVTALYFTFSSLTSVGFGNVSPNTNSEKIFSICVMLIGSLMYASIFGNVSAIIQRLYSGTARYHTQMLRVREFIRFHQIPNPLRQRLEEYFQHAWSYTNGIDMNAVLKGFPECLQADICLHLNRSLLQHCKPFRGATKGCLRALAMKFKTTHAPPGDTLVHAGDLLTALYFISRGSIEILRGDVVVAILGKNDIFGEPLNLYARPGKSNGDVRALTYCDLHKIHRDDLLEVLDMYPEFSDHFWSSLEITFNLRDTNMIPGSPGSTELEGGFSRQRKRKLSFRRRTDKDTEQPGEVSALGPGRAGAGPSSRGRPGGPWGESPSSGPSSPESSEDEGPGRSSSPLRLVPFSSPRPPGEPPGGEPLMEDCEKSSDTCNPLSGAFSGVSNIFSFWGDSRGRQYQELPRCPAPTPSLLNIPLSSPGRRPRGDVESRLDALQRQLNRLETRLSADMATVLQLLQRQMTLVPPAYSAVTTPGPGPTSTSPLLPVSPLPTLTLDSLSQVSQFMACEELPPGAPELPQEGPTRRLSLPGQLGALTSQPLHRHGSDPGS
T2 sequence (Q8VNN2 whole entry): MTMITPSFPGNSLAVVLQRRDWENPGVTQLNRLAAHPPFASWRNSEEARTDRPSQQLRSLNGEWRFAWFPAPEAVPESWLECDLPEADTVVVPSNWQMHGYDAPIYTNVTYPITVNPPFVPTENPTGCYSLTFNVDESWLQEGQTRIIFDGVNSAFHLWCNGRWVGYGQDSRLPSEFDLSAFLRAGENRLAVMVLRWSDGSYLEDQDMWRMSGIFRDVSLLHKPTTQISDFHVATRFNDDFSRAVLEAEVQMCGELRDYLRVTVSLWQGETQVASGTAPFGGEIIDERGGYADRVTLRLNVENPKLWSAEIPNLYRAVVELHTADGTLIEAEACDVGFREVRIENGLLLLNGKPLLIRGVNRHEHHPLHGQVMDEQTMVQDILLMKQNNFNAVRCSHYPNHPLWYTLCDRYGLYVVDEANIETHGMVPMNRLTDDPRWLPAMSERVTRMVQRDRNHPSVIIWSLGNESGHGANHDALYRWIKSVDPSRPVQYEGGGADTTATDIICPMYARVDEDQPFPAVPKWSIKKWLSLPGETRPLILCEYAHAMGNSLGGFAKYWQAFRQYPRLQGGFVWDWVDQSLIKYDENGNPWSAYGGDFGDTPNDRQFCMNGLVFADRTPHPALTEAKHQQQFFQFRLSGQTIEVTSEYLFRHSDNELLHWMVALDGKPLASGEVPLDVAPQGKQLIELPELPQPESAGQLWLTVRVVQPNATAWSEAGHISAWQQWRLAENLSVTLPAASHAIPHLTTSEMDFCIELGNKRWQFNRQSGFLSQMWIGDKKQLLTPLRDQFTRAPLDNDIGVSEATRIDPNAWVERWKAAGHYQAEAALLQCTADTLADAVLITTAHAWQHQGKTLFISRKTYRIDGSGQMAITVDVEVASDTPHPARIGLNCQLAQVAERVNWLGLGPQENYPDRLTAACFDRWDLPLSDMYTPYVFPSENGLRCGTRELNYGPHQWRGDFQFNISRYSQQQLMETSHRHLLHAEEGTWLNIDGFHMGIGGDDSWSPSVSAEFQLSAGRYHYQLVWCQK
Sequence of DNA dC->dU-editing enzyme APOBEC-3G (Q9HC16 whole entry): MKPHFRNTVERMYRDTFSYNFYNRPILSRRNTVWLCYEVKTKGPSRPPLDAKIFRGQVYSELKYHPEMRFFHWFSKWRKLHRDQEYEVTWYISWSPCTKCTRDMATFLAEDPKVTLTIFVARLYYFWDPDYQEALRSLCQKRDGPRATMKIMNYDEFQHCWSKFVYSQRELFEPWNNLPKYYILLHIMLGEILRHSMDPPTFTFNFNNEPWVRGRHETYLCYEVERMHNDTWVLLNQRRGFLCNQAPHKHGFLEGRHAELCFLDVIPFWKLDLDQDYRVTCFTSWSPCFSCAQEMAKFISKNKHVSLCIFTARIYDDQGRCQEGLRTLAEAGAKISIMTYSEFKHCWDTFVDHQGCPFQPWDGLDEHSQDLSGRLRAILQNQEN
Sequence of DNA dC->dU-editing enzyme APOBEC-3A (P31941 whole entry): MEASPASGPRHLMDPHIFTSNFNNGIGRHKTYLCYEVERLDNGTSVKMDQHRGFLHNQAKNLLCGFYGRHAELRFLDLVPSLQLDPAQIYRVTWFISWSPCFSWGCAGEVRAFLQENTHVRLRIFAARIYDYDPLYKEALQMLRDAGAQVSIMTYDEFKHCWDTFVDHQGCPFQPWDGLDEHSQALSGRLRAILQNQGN
Sequence of 5-hydroxytryptamine receptor 2A (P35363 whole entry): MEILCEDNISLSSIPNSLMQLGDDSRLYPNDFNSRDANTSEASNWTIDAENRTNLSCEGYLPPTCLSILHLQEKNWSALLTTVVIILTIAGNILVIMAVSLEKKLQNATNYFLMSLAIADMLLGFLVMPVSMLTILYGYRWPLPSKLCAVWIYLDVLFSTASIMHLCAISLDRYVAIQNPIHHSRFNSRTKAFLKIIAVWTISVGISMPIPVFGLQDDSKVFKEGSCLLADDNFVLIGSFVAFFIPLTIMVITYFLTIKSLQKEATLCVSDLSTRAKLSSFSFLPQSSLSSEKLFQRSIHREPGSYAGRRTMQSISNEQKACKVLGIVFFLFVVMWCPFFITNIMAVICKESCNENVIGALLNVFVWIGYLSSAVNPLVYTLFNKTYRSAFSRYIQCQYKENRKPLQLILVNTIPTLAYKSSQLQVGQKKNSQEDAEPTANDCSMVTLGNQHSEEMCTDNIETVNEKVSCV

N#Cc1ccccc1NC(=O)C1SC(Nc2ccccc2)=C(C(=O)Nc2ccc(Cl)cc2)C1=N (stereo not drawn)
IC50 [1]: 6.4 µM (active)
IC50 [2]: 8.77 µM (active)

Nc1ccc(S(=O)(=O)Nc2nccc(/C=C/c3cccc(Br)c3)n2)cc1
IC50 (HEK293 [3]): 7.62 µM (active)
EC50 (HEK293 [4]): 8.24 µM (active)
IC50 (HEK293 [5]): > 20 µM (inactive)
IC50 (HEK293 [6]): 12.8 µM (active)

CC(=O)n1cc([C@@H]2C=C(C(=O)N3CCN(Cc4ccc5c(c4)OCO5)CC3)O[C@H](OCCCCO)C2)c2ccccc21
CC50 [7]: > 40 µM (active)

COC(=O)C(C)Sc1nnc(S)s1 (stereo not drawn)
IC50 [8]: 15.8 µM (active)
IC50 [9]: > 100 µM (inactive)

Cc1ccc(-c2cc(-c3ccccc3)nc(NN)n2)cc1
IC50 [10]: 6.66 µM (active)
EC50 (Beta-galactosidase [11]): > 40 µM (inactive)
AC50 [12]: 5.4 µM (active)

NC(=O)c1c(NC(=O)c2ccc([N+](=O)[O-])o2)sc2c1CCCC2
EC50 [13]: 13.3 µM (active)
EC50 [14]: 7.76 µM (active)
IC50 (Beta-galactosidase [15]): > 66.6 µM (inactive)
EC50 [16]: 47.5 µM (active)

CN1C(=O)CCC1c1cccnc1 (stereo not drawn)
AC50 [17]: 3.16 µM (inconclusive)

COc1ccccc1NC(=O)N1CCCCN2[C@@H](CO)[C@H](c3ccc(C#CC4CCCC4)cc3)[C@@H]2C1
AC50 [18]: 0.425 µM (active)
AC50 [19]: 10.6 µM (active)
AC50 [20]: 0.386 µM (active)
AC50 [21]: 17.4 µM (active)
AC50 [22]: 0.458 µM (active)
AC50 [23]: 1.98 µM (active)

CNCC(O)c1ccc(O)c(O)c1 (stereo not drawn) [RACEPINEPHRINE HYDROCHLORIDE]
EC50 [24]: 1.39 µM (active)
AC50 [17]: 12.6 µM (inconclusive)
IC50 (cells [25]): > 67.6 µM (inactive)
IC50 [26]: > 67.6 µM (inactive)

CCn1c(=O)n(CC)c2cc(N3CCCC3)c(NC(=O)c3cc(Br)ccc3OC)cc21
EC50 [27]: 12 µM (active)
EC50 (Streptokinase A): 18.5 µM (active)
CC50 [28]: 16.4 µM (active)
EC50 (Streptococcus): 11.2 µM (active)
EC50 [29]: 7.36 µM (active)
CC50 [7]: 37.6 µM (active)
EC50 [30]: 0.99 µM (active)

CC1=NC(Nc2nc(C)c3ccccc3n2)=NC(C)(C)C1
IC50 [10]: 13 µM (active)
EC50 (Beta-galactosidase [11]): > 40 µM (inactive)

Cc1ccc2[nH]c(-c3sc4nc(C)cc(C)c4c3N)nc2c1
EC50 (cells [31]): > 67.5 µM (inactive)
EC50 [32]: > 67.5 µM (inactive)
EC50 [33]: 21 µM (active)

C[C@@H]1CN([C@@H](C)CO)C(=O)c2cc(NC(=O)Nc3ccc(C(F)(F)F)cc3)ccc2O[C@H]1CN(C)CC1CCCCC1
AC50 [21]: 22 µM (active)
AC50 [23]: 10.6 µM (active)

C=CCOC(=O)CCCCCCCC
AC50 [17]: 79.4 µM (inconclusive)

Cc1cc(-c2nnc(S)n2CC(C)C)cs1
IC50 [8]: 5.87 µM (active)
IC50 [9]: > 100 µM (inactive)

COc1cccc(-c2cccc(-c3nc(C(=O)Nc4ccc(-c5ccccc5)cc4)cc4c3[C@@H](CCO)N([S+]([O-])C(C)(C)C)C4)c2)c1 (stereo partly drawn)
AC50 [21]: 15.2 µM (active)
AC50 [23]: 2.71 µM (active)

CC(C)CCn1c(N)c(C(=O)OCC2CCCO2)c2nc3ccccc3nc21 (stereo not drawn)
IC50 [10]: > 40 µM (not active)
EC50 (Beta-galactosidase [11]): > 40 µM (inactive)
